Consider 19 molecules from PubChem BioAssay (NCI).

Structures are written as SMILES.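 Tested at 5 concentrations; 48 h exposure; 96-well plates; endpoints linearly interpolated, else capped at highest concentration. Abbreviation: GI50, concentration required for 50% inhibition of growth. The concentration for full growth arrest is given as TGI.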

The subject of the first assay is NCI/ADR-RES ovarian. Kind of assay: NCI-60 cell line screen, 48 h.
In turn, `N#Cc1c(-c2ccc(F)cc2)c(-c2ccc(F)cc2)nn(CCO)c1=O` came in with a TGI of 22.5 µM.

The next assay relates to K-562 leukemia. Kind of assay: NCI-60 cell line screen, 48 h.
For the molecule `Nc1nccc2c1ccn2-c1ccc(NC(=O)c2ccc(N3CCOCC3)c(C(F)(F)F)c2)cc1`, the GI50 is 0.687 µM and the TGI was more than 100 µM.

Molecule `Cc1[nH]c2ccccc2c1-c1cc(-c2cc(-c3c(C)[nH]c4ccccc34)on2)no1` registered a TGI of more than 100 µM.

Turning to `Cn1cnc([N+](=O)[O-])c1S(=O)(=O)Oc1ccccc1`, the GI50 was 2.52 µM and the TGI turned out to be 15.5 µM.

Take `COc1cc(C2c3cc4c(cc3C(O)C(CO)C2CO)OCO4)cc(OC)c1OC` (stereo not given): the GI50 was 0.432 µM and the TGI was more than 100 µM.

As for `CCCNC(=S)/N=C/c1c(O)c2ccccc2[nH]c1=O`, the TGI was more than 100 µM.

`CCOc1ccc2nc(S/C(=C/C=C(C#N)C#N)c3ccc(C)cc3)sc2c1`: the GI50 was 5.28 µM and the TGI turned out to be 55 µM.

Turning to `Cc1csc(Nc2nc(-c3cccc(Br)c3)nc(C(Cl)(Cl)Cl)n2)n1`, the GI50 is more than 24.9 µM and the TGI was more than 100 µM.

On to `C1CSCCSCCS1`, for which the TGI was more than 100 µM.

As for `CCN(CC)CCOc1ccc(/C=C2\CC3C4CC=C5C[C@@H](O)CC[C@]5(C)C4CC[C@]3(C)C2=O)cc1OC` (stereo not given in full), the GI50 was 3.09 µM and the TGI was more than 38.2 µM.

On to `O=c1c2ccccc2sc2cccc(NCCCN3CCN(CCCNc4cccc5sc6ccccc6c(=O)c45)CC3)c12`, for which the TGI is more than 100 µM.

Consider `Cc1cn2c(/C=C3\C(=O)Nc4ccc(O)cc43)c(-c3ccc(Cl)cc3)nc2s1`, for which the GI50 was 10.4 µM and the TGI stood at 40.9 µM.

Molecule `CC1=CC(=O)[C@@H](O)[C@]2(C)[C@H]3[C@@]4(O)OC[C@]35[C@H]([C@@H](C)[C@H]4O)[C@@H](O)C(=O)O[C@@H]5C[C@@H]12` returned a TGI of more than 100 µM.

`Nc1nc(N)c(N=Nc2ccc([As](=O)(O)O)cc2)c(=O)[nH]1` displayed a TGI of more than 100 µM.

Consider `CCOC(=O)C(=Cc1cccc(Cl)c1)C(=O)OCC`, for which the GI50 is 3.18 µM and the TGI is more than 100 µM.

For the molecule `O=c1cc2oc3cc(O)c(O)cc3c(-c3ccccc3O)c-2cc1O`, the GI50 is 5.76 µM and the TGI was more than 100 µM.

For the molecule `COc1ccccc1N1CCN(CCCn2c(=O)c3c(OC)nc(C)cc3c(=O)n2-c2ccccc2)CC1`, the GI50 is more than 100 µM and the TGI is more than 100 µM.

Consider `N#Cc1c(-c2ccc(F)cc2)c(-c2ccc(F)cc2)nn(CCO)c1=O`, for which the TGI was more than 100 µM.

For a further assay, the system named is RPMI-8226 leukemia. Kind of assay: NCI-60 cell line screen, 48 h.
Take `Nc1nccc2c1ccn2-c1ccc(NC(=O)c2ccc(N3CCOCC3)c(C(F)(F)F)c2)cc1`: the GI50 is 0.311 µM and the TGI amounted to 2.88 µM.

With `Cc1[nH]c2ccccc2c1-c1cc(-c2cc(-c3c(C)[nH]c4ccccc34)on2)no1`, the TGI was more than 100 µM.

Consider `Cn1cnc([N+](=O)[O-])c1S(=O)(=O)Oc1ccccc1`, for which the GI50 is 4.69 µM and the TGI amounted to 17.6 µM.

Turning to `COc1cc(C2c3cc4c(cc3C(O)C(CO)C2CO)OCO4)cc(OC)c1OC` (stereo not given), the GI50 was 1.59 µM and the TGI is more than 100 µM.

Molecule `CCCNC(=S)/N=C/c1c(O)c2ccccc2[nH]c1=O` yielded a TGI of more than 100 µM.

As to `COC12C=C/C(=C(/C(=O)OCc3ccncc3)C(=O)CCCCCCCCC3(OC)C=C/C(=C(/C(=O)OCc4ccncc4)C(=O)CCCCCCCC1)O3)O2`, the GI50 was 0.196 µM and the TGI came out at 1.1 µM.

Take `Cc1csc(Nc2nc(-c3cccc(Br)c3)nc(C(Cl)(Cl)Cl)n2)n1`: the GI50 was 2.19 µM and the TGI is more than 100 µM.

`C1CSCCSCCS1` came in with a TGI of more than 100 µM.

`O=c1c2ccccc2sc2cccc(NCCCN3CCN(CCCNc4cccc5sc6ccccc6c(=O)c45)CC3)c12` displayed a TGI of more than 100 µM.

With `Cc1cn2c(/C=C3\C(=O)Nc4ccc(O)cc43)c(-c3ccc(Cl)cc3)nc2s1`, the GI50 was 34.5 µM and the TGI was more than 100 µM.

As to `CC1=CC(=O)[C@@H](O)[C@]2(C)[C@H]3[C@@]4(O)OC[C@]35[C@H]([C@@H](C)[C@H]4O)[C@@H](O)C(=O)O[C@@H]5C[C@@H]12`, the TGI was more than 100 µM.

On to `Nc1nc(N)c(N=Nc2ccc([As](=O)(O)O)cc2)c(=O)[nH]1`, for which the TGI was more than 100 µM.

Consider `CCOC(=O)C(=Cc1cccc(Cl)c1)C(=O)OCC`, for which the GI50 is 2.1 µM and the TGI stood at 5.32 µM.

Turning to `C=CC(=O)N1CCC(C2CCNc3c(C(N)=O)c(-c4ccc(Oc5ccccc5)cc4)nn32)CC1` (stereo not given), the GI50 was 12.4 µM and the TGI stood at 39.5 µM.

Regarding `COc1ccccc1N1CCN(CCCn2c(=O)c3c(OC)nc(C)cc3c(=O)n2-c2ccccc2)CC1`, the GI50 is more than 100 µM and the TGI was more than 100 µM.

`N#Cc1c(-c2ccc(F)cc2)c(-c2ccc(F)cc2)nn(CCO)c1=O` gave a TGI of more than 100 µM.

The test system of the next assay is OVCAR-8 ovarian. The experiment in a line: NCI-60 cell line screen, 48 h.
Turning to `Nc1nccc2c1ccn2-c1ccc(NC(=O)c2ccc(N3CCOCC3)c(C(F)(F)F)c2)cc1`, the GI50 was 3.47 µM and the TGI was determined as 19.6 µM.

For the molecule `Cc1[nH]c2ccccc2c1-c1cc(-c2cc(-c3c(C)[nH]c4ccccc34)on2)no1`, the TGI is more than 100 µM.

As to `Cn1cnc([N+](=O)[O-])c1S(=O)(=O)Oc1ccccc1`, the GI50 is 22.6 µM and the TGI was more than 92.7 µM.

Consider `COc1cc(C2c3cc4c(cc3C(O)C(CO)C2CO)OCO4)cc(OC)c1OC` (stereo not given), for which the GI50 is 2.76 µM and the TGI is more than 100 µM.

`CCCNC(=S)/N=C/c1c(O)c2ccccc2[nH]c1=O` displayed a TGI of more than 100 µM.

As for `COC12C=C/C(=C(/C(=O)OCc3ccncc3)C(=O)CCCCCCCCC3(OC)C=C/C(=C(/C(=O)OCc4ccncc4)C(=O)CCCCCCCC1)O3)O2`, the GI50 is 0.219 µM and the TGI was 50 µM.

As to `CCOc1ccc2nc(S/C(=C/C=C(C#N)C#N)c3ccc(C)cc3)sc2c1`, the GI50 is 32.8 µM and the TGI was more than 100 µM.

With `Cc1csc(Nc2nc(-c3cccc(Br)c3)nc(C(Cl)(Cl)Cl)n2)n1`, the GI50 is more than 29.2 µM and the TGI was more than 100 µM.

`C1CSCCSCCS1` gave a TGI of more than 100 µM.

For the molecule `CCN(CC)CCOc1ccc(/C=C2\CC3C4CC=C5C[C@@H](O)CC[C@]5(C)C4CC[C@]3(C)C2=O)cc1OC` (stereo not given in full), the GI50 is 1.92 µM and the TGI came out at 3.74 µM.
